Experimental data from patent US20090123447A1, “COMPOSITIONS AND METHODS TO INHIBIT RNA VIRAL REPRODUCTION” (priority 2007, published 2009).

Legend:
[1] = system: JFH1-transfected cells; assay: ATP concentration as cytotoxicity measure in JFH1-transfected cells
Protocol: Determination of ATP concentrations—ATP level was measured, using Somatic Cell ATP Assay kit from Sigma-Aldrich, as previously described (68). Protein level was determined with bicinchoninic acid kit (Pierce Biotechnology, Inc., Rockford, Ill.).
ATP concentration was measured to determine if the treatments were cytotoxic to the cells.

[2] = system: subgenomic HCV replicon of genotype 1b; assay: microbe, parasite or virus in culture; type: cell-based, hepatitis C virus; conditions: SgPC2 cells, Northern blot
Protocol: Huh7 human hepatoma cells were cultured in Dulbecco's modified Eagle medium (DMEM; Invitrogen, Carlsbad, Calif., USA) supplemented with 10% fetal bovine serum (FBS; Invitrogen), 100 units/ml of penicillin, and 100 μg/ml of streptomycin in a 5% CO2 incubator. SgPC2 cells are G418-selected, pooled Huh7 cell clones that support the continuous replication of a subgenomic HCV replicon of genotype 1b and [29] (GenBank Accession No. AJ242652) that carries a S11791 adaptive mutation within the NS5A region. SgPC2 cells were maintained in the above medium supplemented with 0.5 mg/ml G418 (Invitrogen). G418 was removed at least 1 day before cell treatments.

[3] = system: intracellular calcium concentration ([Ca^2+]i); assay: [Ca^2+]i measurement with Indo-1 AM in SgPC2 cells; type: cell-based, human; conditions: BSO-treated cells, after 24 h
Protocol: Briefly, on the day of the experiment, cells were washed in Krebs-Ringer phosphate buffer (KRPH; pH 7.4, containing 1.0 mM MgSO4, 1.3 mM CaCl2, 10 mM Hepes, 5 mM glucose, 125 mM NaCl, 5 mM KCl, and 10 mM sodium phosphate) and subsequently loaded with 10-20 μM Indo-1 AM (70 μl/coverslip; Molecular Probes, Inc., Eugene, Oreg., USA) containing 10 μM probenecid (Molecular Probes) for 30 min at 37° C. The attached cells were washed and bathed in KRPH/probenecid at 4° C. or room temperature until further analysis. Then, coverslips were individually submerged into KRPH and preequilibrated inside the […] fluorimeter (Hitachi) in darkness for 3 min, and [Ca^2+]i was monitored continuously at 37° C., with excitation at […] and emission at 400 and 450 nm. H2O2 and other agents were injected at different time points, as indicated under Results. [Ca^2+]i was calculated as described. Rmax was determined by adding 8-16 μM digitonin and Rmin with 10 mM ethylene glycol-bis(β-aminoethyl)-N,N,N'-tetraacetic acid (EGTA). […] The baseline, which represented unstimulated cells scanned over time, was plotted along with other measurements or subtracted from the other plots. Cells were serum-depleted, 1 day before the experiment, by incubating them overnight in DMEM plus 0.5% FBS. […] Then, CaCl2 was added before determining the Rmax for each run.

[4] = system: GSH; assay: Intracellular glutathione (GSH) in SgPC2 cells, GSH recycling assay; type: cell-based, human; conditions: 20-40 μM BSO, 24 h
Protocol: Intracellular GSH concentration was determined using a GSH recycling assay [35] and expressed as nmol/mg protein. ATP level was measured using the Somatic Cell ATP assay kit from Sigma-Aldrich, as previously described [32]. Protein level was determined with a bicinchoninic acid kit (Pierce Biotechnology, Inc., Rockford, Ill., USA).

[5] = system: GSH; assay: Intracellular GSH content in Huh7 cells (unpublished observation); type: cell-based, human; conditions: twenty to 100 μM BSO
[6] = system: SgJFH1-Luc RNA (subgenomic JFH1 replicon); assay: SgJFH1-Luc RNA replication in Huh7 cells, luciferase assay; type: cell-based, hepatitis C virus; conditions: Huh7 cells transfected with SgJFH1-Luc RNA
Protocol: (§1) For viral RNA transfection, JFH1, JFH1/GND, and pSGR-JFH1-Luc were linearized with XbaI and used to synthesize the corresponding positive-sense stranded HCV RNA, as previously described (68). Then, 5×10^6 Huh7 cells were rinsed with Opti-Mem (Invitrogen), mixed briefly with 10-20 μg of the in vitro transcribed RNA in 0.4 ml of Opti-Mem, and then electroporated at 260 volts and 950 μF. […] Medium was changed daily. For infection with HCV, medium collected from JFH1 RNA-transfected cells were cleared of cell debris, as described, and added to naïve Huh7 cells. Typically, 1:2 or 3:2 ratio of the virus-containing medium and fresh cell culture medium were used.
SgJFH1-Luc RNA replication was also monitored by firefly luciferase reporter assay, using a kit from Promega.
To investigate whether the HCV RNA replication is modulated by ROS, Huh7 cells were transfected with the SgJFH1-Luc RNA and treated with GO plus glucose.
After 24 and 48 hours, respectively, the cells were collected in PBS, centrifuged, lysed in the reporter lysis buffer (Promega), and analyzed for luciferase activity.

[7] = system: JFH1 HCV (genotype 2a); type: cell-based, hepatitis C virus; conditions: JFH1-transfected cells, 20 uM
Protocol: as §1
JFH1/GND was used as the negative control. When L-buthionine S,R-sulfoximine (BSO) was used, the cells were pretreated with BSO for 16-24 hrs prior to the initiation of treatments.
Intracellular JFH1 HCV RNA content was also analyzed by qRT-PCR (Taqman), using ABI7300 real time PCR system and one step RT-PCR kit from Applied Biosystems. The forward primer was 5′-[…]-3′ (nt. 146 to 164) and the reverse primer, 5′-[…]-3′ (nt. 277 to 295). The probe was 5′[…]3′ (nt. 168 to 188) and was fluorogenically labeled with FAM (5′) and TAMRA (3′) (Biosearch Technologies, Novato, Calif.). Briefly, the reactions were carried out at 48° C. for 30 min for reverse transcription, followed by denaturation at 95° C. for 10 min, and then 50 cycles of 15 sec denaturation at 95° C. plus 60 sec of annealing and extension at 60° C. All samples were analyzed in duplicates or triplicates. In vitro RNA transcripts were used to generate standard curve to determine RNA copy numbers. The level of 18S rRNA was also analyzed, using manufacturer-optimized protocol, as the control.
To analyze the amount of the extracellular HCV RNA, medium from the cells were cleared by low-speed centrifugation and then, treated with RNaseA at room temperature. Then, the RNA samples were extracted, using Trizol LS Reagent (Invitrogen), and analyzed for HCV RNA content by qRT-PCR.

For `CCCCS(=N)(=O)CCC(N)C(=O)O` (stereo not shown) [BSO, 1-buthionine S,R-sulfoximine, reference compound], the “cytotoxicity (ATP concentration, cell survivability)” value [1] was “did not cause any loss in cell survivability”, the “effect on HCV RNA level / replication” value [2] was “sufficient to decrease the HCV RNA level” and the intracellular calcium concentration [3] was 60.6 ± 4.3 nM. For the same compound, the “decrease of total intracellular GSH concentration” value [4] was “about 75%”, the “decrease of intracellular GSH content” value [5] was “about 60%” and the “HCV RNA level by luciferase activity” value [6] was “further suppressed HCV RNA”. For the same compound, the “intracellular HCV RNA level” value [7] was “significant suppression”.
